Source: patent publication US20060040871A1, “Bacterial transforming agent” (priority 2003, published 2006)
Read-outs that look alike come from different tables or passages of the source.

What was measured:
[1] = system: MRSA with intermediate resistance to glycopeptides; assay: MIC of vancomycin or teicoplanin for MRSA with intermediate resistance to glycopeptides grown with GBE or NAGly (Table 4); type: cell-based, Staphylococcus aureus; conditions: NAGly 0.001M; for MIC: Staphylococcus aureus, read-out: MIC of teicoplanin
MRSA [2] = assay: Antimicrobial plus BTA against recent clinical MRSA isolates (Table 7); type: cell-based, Staphylococcus aureus
Description: The four clinical isolates were isolated from patients during the first three months of 2003. […] An intermediate MRSA has been included, as methicillin-resistance has been achieved by means other than production of PBP2a.

VRE = assay: Antimicrobial plus BTA against VRE (Table 7); type: cell-based, enterococci; conditions: +BTA 0.01%
MRSA [3] = assay: MIC of methicillin for MRSA isolates grown with glycine or GBE (Table 1); type: cell-based, Staphylococcus aureus; conditions: 0.0 (Control); for MIC: Staphylococcus aureus
S. aureus = assay: MIC of methicillin for already sensitive S. aureus with GBE, with or without 1% human plasma (Table 6); type: cell-based, Staphylococcus aureus; conditions: Staphylococcus aureus, no plasma (Control 1)
Description: As previously mentioned, a common cause of auto-infection is due to S. aureus carried on the anterior nares. […] The transforming agents of the present invention may also be used in combination with a suitable antimicrobial to eliminate nasal carriage of MSSA prior to cardiac surgery or other invasive procedures carrying a high risk of auto-infection.

CC(=O)NCC(=O)O [NAGly, N-acetylglycine]
0.25 µg/mL: MIC of vancomycin ([1]; NCTC 12493)
2 µg/mL: MIC of vancomycin ([1]; L266 (second line), EMRSA-17 (VISA))
0.15 µg/mL: MIC ([1]; MRSA / NCTC 12493, NCTC 12493)
4 µg/mL: MIC of vancomycin ([1]; L266 (first line), EMRSA-17 (VISA)) | MIC of teicoplanin ([1]; L266, EMRSA-16 (TISA)) | MIC ([1]; MRSA, L265, EMRSA-16 (TISA))

Cc1onc(-c2ccccc2)c1C(=O)N[C@@H]1C(=O)N2[C@@H]1SC(C)(C)[C@@H]2C(=O)O [Oxacillin, oxacillin]
256 µg/mL: Oxacillin (antimicrobial plus BTA; quantity not named, MIC implied) (MRSA [2]; EMRSA-16, oxacillin alone) | Oxacillin (antimicrobial plus BTA; quantity not named, MIC implied) (MRSA [2]; EMRSA-17, oxacillin alone)
32 µg/mL: Oxacillin (antimicrobial plus BTA; quantity not named, MIC implied) (MRSA [2]; I-MRSA, oxacillin alone)

C#CCC(N)C(=O)O.C#CCC(N)C(=O)O (stereo not shown) [PPG, Propargylglycine (2-Amino-4-pentynoic acid)]
6 µg/mL: Cephalexin (antimicrobial plus BTA; quantity not named, MIC implied) (MRSA [2]; EMRSA-17, +BTA 0.01%)
< 0.25 µg/mL: Vancomycin (antimicrobial plus BTA; quantity not named, MIC implied) (MRSA [2]; I-MRSA, +BTA 0.01%)
2 µg/mL: Oxacillin (antimicrobial plus BTA; quantity not named, MIC implied) (MRSA [2]; EMRSA-17, +BTA 0.01%) | Oxacillin (antimicrobial plus BTA; quantity not named, MIC implied) (MRSA [2]; I-MRSA, +BTA 0.001%)
1.5 µg/mL: Oxacillin (antimicrobial plus BTA; quantity not named, MIC implied) (MRSA [2]; EMRSA-16, +BTA 0.01%)
0.125 µg/mL: Cephalexin (antimicrobial plus BTA; quantity not named, MIC implied) (MRSA [2]; I-MRSA, +BTA 0.01%) | Oxacillin (antimicrobial plus BTA; quantity not named, MIC implied) (MRSA [2]; I-MRSA, +BTA 0.01%)
0.25 µg/mL: Vancomycin (antimicrobial plus BTA; quantity not named, MIC implied) (MRSA [2]; EMRSA-16, +BTA 0.01%) | Vancomycin (antimicrobial plus BTA; quantity not named, MIC implied) (MRSA [2]; EMRSA-17, +BTA 0.01%)
4 µg/mL: Oxacillin (antimicrobial plus BTA; quantity not named, MIC implied) (MRSA [2]; EMRSA-16, +BTA 0.001%)
12 µg/mL: Cephalexin (antimicrobial plus BTA; quantity not named, MIC implied) (MRSA [2]; EMRSA-16, +BTA 0.01%)
64 µg/mL: Vancomycin (antimicrobial plus BTA; quantity not named, MIC implied) (VRE)
8 µg/mL: Oxacillin (antimicrobial plus BTA; quantity not named, MIC implied) (MRSA [2]; EMRSA-17, +BTA 0.001%)

COc1cccc(OC)c1C(=O)N[C@@H]1C(=O)N2[C@@H]1SC(C)(C)[C@@H]2C(=O)O [methicillin]
0.5 µg/mL: MIC (S. aureus; LHS79) | MIC (S. aureus; LHS82) | MIC (S. aureus; LHS87) | MIC (S. aureus; LHS92)
0.25 µg/mL: MIC (S. aureus; LHS78) | MIC (S. aureus; LHS80) | MIC (S. aureus; LHS83) | MIC (S. aureus; LHS84) | MIC (S. aureus; LHS85) | MIC (S. aureus; LHS86) | MIC (S. aureus; LHS88) | MIC (S. aureus; LHS89) | MIC (S. aureus; LHS93) | MIC (S. aureus; LHS94)
>256 µg/mL: MIC of methicillin (MRSA [3]; CD40 (EMRSA-1)) | MIC of methicillin (MRSA [3]; DS09 (EMRSA-1)) | MIC of methicillin (MRSA [3]; E15-97 (EMRSA-15)) | MIC of methicillin (MRSA [3]; E16-96 (EMRSA-16)) | MIC of methicillin (MRSA [3]; JF1-32 (EMRSA-1)) | MIC of methicillin (MRSA [3]; L265) | MIC of methicillin (MRSA [3]; L267) | MIC of methicillin (MRSA [3]; L268) | MIC of methicillin (MRSA [3]; L269) | MIC of methicillin (MRSA [3]; L270) | MIC of methicillin (MRSA [3]; L271) | MIC of methicillin (MRSA [3]; L272) | MIC of methicillin (MRSA [3]; L273) | MIC of methicillin (MRSA [3]; L274) | MIC of methicillin (MRSA [3]; L275) | MIC of methicillin (MRSA [3]; L276) | MIC of methicillin (MRSA [3]; L277) | MIC of methicillin (MRSA [3]; L278) | MIC of methicillin (MRSA [3]; L279) | MIC of methicillin (MRSA [3]; L280) | MIC of methicillin (MRSA [3]; L281) | MIC of methicillin (MRSA [3]; L282) | MIC of methicillin (MRSA [3]; L283) | MIC of methicillin (MRSA [3]; L284) | MIC of methicillin (MRSA [3]; L285) | MIC of methicillin (MRSA [3]; L286) | MIC of methicillin (MRSA [3]; L287) | MIC of methicillin (MRSA [3]; L288) | MIC of methicillin (MRSA [3]; L289) | MIC of methicillin (MRSA [3]; L290) | MIC of methicillin (MRSA [3]; L291) | MIC of methicillin (MRSA [3]; L292) | MIC of methicillin (MRSA [3]; L293) | MIC of methicillin (MRSA [3]; L294) | MIC of methicillin (MRSA [3]; MC01 (EMRSA-1)) | MIC of methicillin (MRSA [3]; PS3-32 (EMRSA-1)) | MIC of methicillin (MRSA [3]; SN31 (EMRSA-1)) | MIC of methicillin (MRSA [3]; ST11 (EMRSA-1)) | MIC of methicillin (MRSA [3]; SW2-32 (EMRSA-1))
< 0.25 µg/mL: MIC (S. aureus; LHS77) | MIC (S. aureus; LHS81) | MIC (S. aureus; LHS90) | MIC (S. aureus; LHS91)
> 256 µg/mL: MIC (MRSA [3]; MRSA / NCTC 12493, NCTC 12493) | MIC (MRSA [3]; MRSA, L266) | MIC (S. aureus; 5518 (EMRSA-1))
